Test results taken from EP0234708A1, “Tetrahydrocarbazole 1-alkanoic acids” (MERCK FROSST CANADA INC., priority 1986, dated 1987).

Tests used:
[1] = molecular target: T1, Human Platelets (Homo sapiens, UniProt P21731); test: Inhibition of induced threshold aggregation of human platelets (aggregating agent U44069, platelet rich plasma); format: cell-based; conditions: for IC50: human platelet rich plasma, threshold aggregation induced by U44069, read-out: Inhibition of platelet aggregation (IC50 in µg/ml) (converted)
T1 sequence (P21731 1-343): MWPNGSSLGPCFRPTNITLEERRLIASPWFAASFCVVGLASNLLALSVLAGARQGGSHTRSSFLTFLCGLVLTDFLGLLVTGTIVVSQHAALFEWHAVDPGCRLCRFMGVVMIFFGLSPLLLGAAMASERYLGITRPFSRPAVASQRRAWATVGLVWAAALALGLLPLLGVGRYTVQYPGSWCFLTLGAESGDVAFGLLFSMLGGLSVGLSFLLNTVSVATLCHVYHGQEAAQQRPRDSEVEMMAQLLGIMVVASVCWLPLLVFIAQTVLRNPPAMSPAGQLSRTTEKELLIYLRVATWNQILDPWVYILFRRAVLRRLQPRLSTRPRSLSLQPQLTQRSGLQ
Procedure: Inhibition of Induced Threshold Aggregation of Human
Human platelet rich plasma (PRP) is prepared from venous blood of male volunteers who have taken no medication for ten days prior to test. […] The supernatant (PRP) is transferred into plastic tubes. Platelet poor plasma (PPP) is obtained by centrifuging the residual blood cells at 4000 g for ten minutes. PRP is left to stand at least one half hour prior to testing.
Platelet Aggregation is measured using a Payton Aggregometer and Recorder. […] Drug vehicle (control), or a drug concentration is then added in a volume of 0.5 microliter. After one minute, the aggregating agent (U44069, 9,11-dideoxy-9α,11α-epoxymethano PGF 2a ) is added to the cuvette in a volume of 25 microliters. Recording is continued until the maximal response is obtained.
The threshold (approximately 20 - 30% of maximum) aggregation concentration of the agonist to be used is first determined in the presence of the drug vehicle (control). […] All drugs are dissolved in dimethylsulfoxide.
The height of the aggregation response (measured in divisions of the recorder paper, 1 division × 2.5 mm) in the presence of the drug is recorded, and calculated as percent inhibition of the mean height of the control threshold responses.

[2] = test system: Guinea Pig Tracheal Chain; test: Estimation of pA2 values in guinea pig tracheal chain (contractile agonist U-44069); design: species or system guinea pigs; conditions: for Kb: Cavia porcellus; for Kb / pA2: guinea pig tracheal chain, antagonism of U-44069 contraction, logarithmic scale; for prostanoid antagonist activity (statement in words): Table 4 data (platelet aggregation and pA2)
Source text: Estimation of pA2 Values in Guinea Pig Tracheal Chain
Male albino Hartley strain guinea pigs (300-350 gm) were sacrificed by a blow to the head and exsanguinated. The trachea was removed, freed of extraneous tissue and sectioned into rings of 1-2 mm thickness. Five rings were tied together in series, ensuring that the tracheal muscle lay in the same vertical plane, and the cartilage of each ring then separated at a point directly opposite the muscle. The chains were suspended under 1 gm resting tension in modified Krebs solution (NaCl, 6.87; NaHCO3, 2.1; dextrose, 2.1; KC1, 0.32; CaCl2, 0.28; MgSO4, 7H 0, 0.11; KH2PO4, 0.16; gm/L: equilibrated with 5% C02 in O2 for 1 hour) containing indomethacin (1.4 x 10^-5M) to suppress endogenous protaglandin synthesis, Organ bath temperature was maintained at 37°C and 5% C02 in 02 diffused continously. Isometric tension changes were recorded from a Gould-Statham (UTC 2) force displacement transducer connected to a Beckman Type R Dynograph. For assay purposes initial maximal contractions were elicited with a high concentration of the contractile agonist [U-44069, 9.11-dideoxy-9α,11α-epoxymethano PGF2α] and the tissue subsequently washed at intervals until tension returned to baseline. Agonist dose response curves were obtained using a cumulative-dose schedule (4-8 doses) and the preparations then washed at regular intervals until baseline tension was recorded. After an appropriate interval (1-1.5 hrs) agonist dose response curves were repeated in the presence of antagonist drug concentrations. […] EC50 values were obtained by regression analysis and used to calculate 'apparent' and Schild Plot pA2 values by the method of Tallarida and Murray 1981.

SMILES | IC50 [1] | Kb [2] | pA2 [2] | prostanoid antagonist activity (statement in words) [2] | times less potent as an inhibitor of platelet aggregation ([1]; compared with compound 2) | pA2 is a factor less than that of compound 2 ([2]; compared with compound 2, printed as antilog of 1.6)
O=C(O)CC1CCCc2c1n(Cc1ccc(Cl)cc1)c1ccc(F)cc21 (stereo not drawn) [Compound 1, 9-p-chlorobenzyl-6-fluoro-1,2,3,4-tetrahydrocarbazol-1-yl-acetic acid] | 80.7 nM | – | 8.6 | – | – | –
O=C(O)CC1CCCc2c1n(Cc1ccc(Cl)c(Cl)c1)c1ccc(F)cc21 (stereo not drawn) [Compound 7, 9-(3,4-dichloro)benzyl-6-fluoro-1,2,3,4-tetrahydro-carbazol-1-yl-acetic acid] | 222 nM | 5.01 nM | – | – | – | –
COc1ccc(Cn2c3c(c4cc(F)ccc42)CCCC3CC(=O)O)cc1 (stereo not drawn) [Compound 6, 9-p-methoxybenzyl-6-fluoro-1,2,3,4-tetrahydrocarbazol-1-yl-acetic acid] | 408 nM | 2 nM | – | – | – | –
COc1ccc2c(c1)c1c(n2Cc2ccc(Cl)cc2)C(CC(=O)O)CCC1 (stereo not drawn) [Compound 2, 9-p-chlorobenzyl-6-methoxy-1,2,3,4-tetrahydrocarbazol-1-yl-acetic acid] | 782 nM | 3.98 nM | – | – | – | –
COc1ccc2c(c1)c1c(n2Cc2ccc(Cl)cc2)CCCC1C(=O)O (stereo not drawn) [D] | – | > 1000 nM | – | severe loss of activity | – | –
COc1ccc2c(c1)c1cccc(CC(=O)O)c1n2Cc1ccc(Cl)cc1 [C] | > 79000 nM | 263 nM | – | does not possess any significant activity | – | –
COc1ccc2c(c1)c1c(n2Cc2ccc(Cl)cc2)CC(C(=O)O)CC1 (stereo not drawn) [B] | > 81100 nM | > 1000 nM | – | no significant activity | – | –
COc1ccc2c(c1)c1c(n2Cc2ccc(Cl)cc2)CC(CC(=O)O)CC1 (stereo not drawn) [Compound A, reference compound] | 9120 nM | 158 nM | – | – | ~12 | 14
O=C(O)CC1CCCc2c1n(Cc1ccc(Cl)cc1)c1ccc(F)cc21 (single isomer, unassigned; (-)) [Compound 3, (-)9-p-chlorobenzyl-6-fluoro-1,2,3,4-tetrahydro-carbazol-1-yl-acetic acid] | 134 nM | – | 8.0 | – | – | –

Second part, led by results:

IC50 [1] | SMILES | Kb [2] | pA2 [2] | prostanoid antagonist activity (statement in words) [2] | times less potent as an inhibitor of platelet aggregation ([1]; compared with compound 2) | pA2 is a factor less than that of compound 2 ([2]; compared with compound 2, printed as antilog of 1.6)
217 nM | Cc1ccc2c(c1)c1c(n2Cc2ccc(Cl)cc2)C(CC(=O)O)CCC1 (stereo not drawn) [Compound 13, 9-p-chlorobenzyl-6-methyl-1,2,3,4-tetrahydrocarbazol-1-yl-acetic acid] | 25.1 nM | – | – | – | –
457 nM | O=C(O)CC1CCCc2c1n(Cc1ccc(Cl)cc1)c1cccc(F)c21 (stereo not drawn) [Compound 16, 9-p-chlorobenzyl-5-fluoro-1,2,3,4-tetrahydrocarbazol-1-yl-acetic acid] | 1.26 nM | – | – | – | –
166 nM | O=C(O)CC1CCCc2c1n(Cc1ccc(Cl)cc1)c1c(Cl)cc(Cl)cc21 (stereo not drawn) [Compound 19, 9-p-chlorobenzyl-6,8-dichloro-1,2,3,4-tetrahydro-carbazol-1-yl-acetic acid] | 63.1 nM | – | – | – | –
47000 nM | CC(C)n1c2c(c3cc(F)ccc31)CCCC2CC(=O)O (stereo not drawn) [G, 6-fluoro-9-isopropyl-1,2,3,4-tetrahydrocarbazol-1-yl-acetic acid] | > 1000 nM | – | almost completely lost activity | – | –
13800 nM | O=C(O)CC1CCCc2c1[nH]c1ccc(F)cc21 (stereo not drawn) [Compound F, 6-fluoro-1,2,3,4-tetrahydrocarbazol-1-yl-acetic acid] | > 1000 nM | – | severe loss of activity | – | –
803 nM | CC(C(=O)O)C1CCCc2c1n(Cc1ccc(Cl)cc1)c1ccc(F)cc21 (stereo not drawn) [Compound 20, 2-[9-p-chlorobenzyl-6-fluoro-1,2,3,4-tetrahydro-carbazol-1-yl-]propanoic acid] | 158 nM | – | – | – | –
141 nM | O=C(O)CC1CCCc2c1n(Cc1ccc(Cl)cc1)c1ccccc21 (stereo not drawn) [Compound 9, 9-p-chlorobenzyl-1,2,3,4-tetrahydrocarbazol-1-yl-acetic acid] | 1.26 nM | – | – | – | –
272 nM | Cc1cccc2c3c(n(Cc4ccc(Cl)cc4)c12)C(CC(=O)O)CCC3 (stereo not drawn) [Compound 11, 9-p-chlorobenzyl-8-methyl-l,2,3,4-tetrahydrocarbazol-1-yl-acetic acid] | 0.316 nM | – | – | – | –
258 nM | O=C(O)CC1CCCc2c1n(Cc1ccc(Cl)cc1)c1ccc(Cl)cc21 (stereo not drawn) [Compound 10, 9-p-chlcrobenzyl-6-chloro-1,2,3,4-tetrahydrocarbazol-1-yl-acetic acid] | 10 nM | – | – | – | –
11400 nM | COc1ccc2c(c1)c1c(n2Cc2ccc(Cl)cc2)C(C(=O)O)CCC1 (stereo not drawn) [E] | 219 nM | – | severe loss of activity | – | –
35200 nM | O=C(O)CC1CCCc2c1n(CCc1ccc(Cl)cc1)c1ccc(F)cc21 (stereo not drawn) [Compound H, 9-[1-(2-p-chlorophenyl)ethyl]-6-fluoro-1,2,3,4-tetra-hydrocarbazol-1-yl-acetic acid] | 158 nM | – | serious loss of activity | – | –
215 nM | O=C(O)CC1CCCc2c1n(Cc1ccc(Cl)cc1)c1c(F)cccc21 (stereo not drawn) [Compound 14, 9-p-chlorobenzyl-8 fluoro-1,2,3,4-tetrahydrocarbazol-1-yl-acetic acid] | 0.398 nM | – | – | – | –
208 nM | O=C(O)CC1CCCc2c1n(Cc1ccc(Cl)cc1)c1ccc(Br)cc21 (stereo not drawn) [Compound 12, 6-bromo-9-p-chlorobenzyl-l,2,3,4-tetrahydrocarbazol-l-yl-acetic acid] | 12.6 nM | – | – | – | –
256 nM | CC(c1ccccc1)n1c2c(c3cc(F)ccc31)CCCC2CC(=O)O (stereo not drawn) [Compound 8, 9-[1-(1-phenyl)ethyl]-6-fluoro-1,2,3,4-tetrahydro-carbazol-1-yl-acetic acid] | > 1000 nM | – | – | – | –
